Data published in ChEMBL document CHEMBL1127324, “Solid-state and solution conformations of the potent HIV inhibitor, 4'-azidothymidine” (J Med Chem, 1994).

Test system: Human immunodeficiency virus
Test: In vitro inhibitory activity against HIV was determined
Type: functional, organism-based
Details: Human immunodeficiency virus 1

IC50: 10 nM
Compound: Cc1cn([C@H]2C[C@H](O)[C@](CO)(N=[N+]=[N-])O2)c(=O)[nH]c1=O
